The target in this experiment is KDR (Homo sapiens, UniProt P35968). Nature of the experiment: KDR kinase inhibition (Ki). In kind it is biochemical.

By Ki is commonly meant a measure of affinity in units of concentration, obtained from inhibition or displacement. A higher Ki goes with lower affinity.

Chain of KDR (P35968 20-1356, species assumed): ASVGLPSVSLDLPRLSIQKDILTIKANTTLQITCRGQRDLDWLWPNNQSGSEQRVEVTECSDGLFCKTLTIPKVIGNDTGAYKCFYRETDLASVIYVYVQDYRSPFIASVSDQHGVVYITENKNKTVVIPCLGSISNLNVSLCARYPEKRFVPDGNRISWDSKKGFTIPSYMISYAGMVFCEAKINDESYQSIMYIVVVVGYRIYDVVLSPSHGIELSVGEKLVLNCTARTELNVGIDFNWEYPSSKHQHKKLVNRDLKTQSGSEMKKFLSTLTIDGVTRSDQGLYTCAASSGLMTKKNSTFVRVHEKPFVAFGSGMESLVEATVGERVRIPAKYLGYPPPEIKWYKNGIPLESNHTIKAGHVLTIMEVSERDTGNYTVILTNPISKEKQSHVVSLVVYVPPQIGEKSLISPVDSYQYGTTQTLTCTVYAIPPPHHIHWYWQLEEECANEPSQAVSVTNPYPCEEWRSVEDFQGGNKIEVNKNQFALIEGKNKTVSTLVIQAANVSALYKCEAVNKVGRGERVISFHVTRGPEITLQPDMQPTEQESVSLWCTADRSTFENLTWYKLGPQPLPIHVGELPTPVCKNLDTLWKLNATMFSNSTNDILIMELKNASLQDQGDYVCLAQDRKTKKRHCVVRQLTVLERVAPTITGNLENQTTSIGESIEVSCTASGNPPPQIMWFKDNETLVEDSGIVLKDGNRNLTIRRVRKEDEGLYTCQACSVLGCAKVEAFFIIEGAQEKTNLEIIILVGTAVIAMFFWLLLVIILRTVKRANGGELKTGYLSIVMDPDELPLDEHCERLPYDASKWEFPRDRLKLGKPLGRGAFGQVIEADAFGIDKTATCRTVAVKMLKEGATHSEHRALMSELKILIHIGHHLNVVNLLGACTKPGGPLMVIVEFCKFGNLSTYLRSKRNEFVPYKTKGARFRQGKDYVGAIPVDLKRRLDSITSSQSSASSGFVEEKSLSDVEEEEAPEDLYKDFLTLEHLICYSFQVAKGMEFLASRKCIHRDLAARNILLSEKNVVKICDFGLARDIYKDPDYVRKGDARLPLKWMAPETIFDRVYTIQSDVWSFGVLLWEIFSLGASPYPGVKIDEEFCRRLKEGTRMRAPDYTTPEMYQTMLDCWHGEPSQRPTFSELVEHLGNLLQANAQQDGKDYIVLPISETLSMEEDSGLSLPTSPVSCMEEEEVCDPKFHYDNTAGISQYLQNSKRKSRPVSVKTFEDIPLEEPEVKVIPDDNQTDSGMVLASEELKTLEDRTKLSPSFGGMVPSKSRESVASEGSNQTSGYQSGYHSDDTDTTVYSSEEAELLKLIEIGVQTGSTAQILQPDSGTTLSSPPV

Take `CC(C)(C)c1ccc(NC(=O)c2cccc3c2CCN(Cc2ccnc4ccccc24)C3=O)cc1` [Example 7A]: the Ki turned out to be 11.1 nM.
With `COc1cc2nccc(Cn3ccc4cc(Cl)ccc4c3=O)c2cc1OC` [Example 11, 6-chloro-2-((6,7-dimethoxyquinolin-4-yl)methyl)isoquinolin-1(2H)-one] the figure was 529 nM; with `CC(C)(C)c1ccc(NC(=O)c2cccc3c2CCN(Cc2ccncc2)C3)cc1` [Example 1A], 333 nM.
With `Cc1cccc(NC(=O)c2cccc3c2CCN(Cc2ccnc4ccccc24)C3)c1` [Example 3A] the figure was 105 nM.
`COc1cc2nccc(CN3CCc4c(C(=O)Nc5ccc(Cl)c(C(F)(F)F)c5)cccc4C3=O)c2cc1OC` [Example 10A] gave a Ki of 1.6 nM. Compared with the last compound, the Ki is about 66-fold lower.
With `O=C(Nc1ccc(Cl)cc1)Nc1cccc2c1CCN(Cc1ccnc3ccccc13)C2` [Example 5C] the figure was 70.1 nM; with `O=C(Nc1ccc(Cl)cc1)c1cccc2c1CCN(Cc1ccncc1)C2` [Example 1, N-(4-chlorophenyl)-2-(pyridin-4-ylmethyl)-1,2,3,4-tetrahydroisoquinoline-5-carboxamide], 3000 nM; with `CC(=O)N1CC(C)(C)c2ccc(NC(=O)c3cccc4c3CCN(Cc3ccnc5ccccc35)C4)cc21` [Example 3H], 5.4 nM.
With `COc1cc(NC(=O)c2cccc3c2CCN(Cc2ccnc4ccccc24)C3)cc(OC)c1` [Example 3C] the figure was 42.8 nM; with `CC(C)c1ccc(NC(=O)Nc2cccc3c2CCN(Cc2ccnc4ccccc24)C3)cc1` [Example 5A], 72.3 nM.

Values taken from patent US8338455B2, “Compounds and methods of use” (Amgen Inc., priority 2006, dated 2012).
